{"source": "patent US8492555B2", "about": "“Salts of isobutyric acid (1 R*, 2R*, 4R*)-2-(2-{[3-(4,7-dimethoxy-1 H-benzoimidazol-2-yl)-methyl-amino}-ethyl)-5-phenyl-bicyclo[2.2.2]oct-5-en-2-yl ester” (Actelion Pharmaceuticals Ltd., priority 2008, dated 2013)", "key": {"[1]": {"experiment": "Hygroscopicity by scanned gravimetric vapour sorption", "type": "physicochemical", "details": "upwards scan; for Hygroscopicity classification: European Pharmacopea Technical Guide (1999), 40% to 80% relative humidity; for Hygroscopicity mass change: between 40% and 80% relative humidity", "excerpt": "The mass change between 40% relative humidity and 80% relative humidity in the upwards scan was considered."}, "isolated mouse hearts": {"test_system": "isolated mouse hearts", "experiment": "Effect on isolated hearts according to the Langendorff method", "details": "read-out: EC50 Langendorff experiment", "description": "Effect on Isolated Hearts According to the Langendorff Method (Lgdff)\nThe Reference Examples 1A, 2A, and 3A were tested for their potential to reduce blood pressure and their effect on the contractility of the heart muscle. EC50 values on isolated mouse hearts were determined according to Literature (Doring H J., The isolated perfused heart according to Langendorff technique—function—application, Physiol. Bohemoslov. 1990, 39(6), 481-504; Kligfield P, Homer H, Brachfeld N., A model of graded ischemia in the isolated perfused rat heart, J. Appl. Physiol. 1976 June, 40(6), 1004-8)."}, "human Cav1.2 channel": {"molecular_target": "T1, human Cav1.2 channel (Homo sapiens, UniProt Q13936)", "T1 construct": "expressed in transfected cells; host or cells: HEK293", "T1 sequence (Q13936 whole entry)": "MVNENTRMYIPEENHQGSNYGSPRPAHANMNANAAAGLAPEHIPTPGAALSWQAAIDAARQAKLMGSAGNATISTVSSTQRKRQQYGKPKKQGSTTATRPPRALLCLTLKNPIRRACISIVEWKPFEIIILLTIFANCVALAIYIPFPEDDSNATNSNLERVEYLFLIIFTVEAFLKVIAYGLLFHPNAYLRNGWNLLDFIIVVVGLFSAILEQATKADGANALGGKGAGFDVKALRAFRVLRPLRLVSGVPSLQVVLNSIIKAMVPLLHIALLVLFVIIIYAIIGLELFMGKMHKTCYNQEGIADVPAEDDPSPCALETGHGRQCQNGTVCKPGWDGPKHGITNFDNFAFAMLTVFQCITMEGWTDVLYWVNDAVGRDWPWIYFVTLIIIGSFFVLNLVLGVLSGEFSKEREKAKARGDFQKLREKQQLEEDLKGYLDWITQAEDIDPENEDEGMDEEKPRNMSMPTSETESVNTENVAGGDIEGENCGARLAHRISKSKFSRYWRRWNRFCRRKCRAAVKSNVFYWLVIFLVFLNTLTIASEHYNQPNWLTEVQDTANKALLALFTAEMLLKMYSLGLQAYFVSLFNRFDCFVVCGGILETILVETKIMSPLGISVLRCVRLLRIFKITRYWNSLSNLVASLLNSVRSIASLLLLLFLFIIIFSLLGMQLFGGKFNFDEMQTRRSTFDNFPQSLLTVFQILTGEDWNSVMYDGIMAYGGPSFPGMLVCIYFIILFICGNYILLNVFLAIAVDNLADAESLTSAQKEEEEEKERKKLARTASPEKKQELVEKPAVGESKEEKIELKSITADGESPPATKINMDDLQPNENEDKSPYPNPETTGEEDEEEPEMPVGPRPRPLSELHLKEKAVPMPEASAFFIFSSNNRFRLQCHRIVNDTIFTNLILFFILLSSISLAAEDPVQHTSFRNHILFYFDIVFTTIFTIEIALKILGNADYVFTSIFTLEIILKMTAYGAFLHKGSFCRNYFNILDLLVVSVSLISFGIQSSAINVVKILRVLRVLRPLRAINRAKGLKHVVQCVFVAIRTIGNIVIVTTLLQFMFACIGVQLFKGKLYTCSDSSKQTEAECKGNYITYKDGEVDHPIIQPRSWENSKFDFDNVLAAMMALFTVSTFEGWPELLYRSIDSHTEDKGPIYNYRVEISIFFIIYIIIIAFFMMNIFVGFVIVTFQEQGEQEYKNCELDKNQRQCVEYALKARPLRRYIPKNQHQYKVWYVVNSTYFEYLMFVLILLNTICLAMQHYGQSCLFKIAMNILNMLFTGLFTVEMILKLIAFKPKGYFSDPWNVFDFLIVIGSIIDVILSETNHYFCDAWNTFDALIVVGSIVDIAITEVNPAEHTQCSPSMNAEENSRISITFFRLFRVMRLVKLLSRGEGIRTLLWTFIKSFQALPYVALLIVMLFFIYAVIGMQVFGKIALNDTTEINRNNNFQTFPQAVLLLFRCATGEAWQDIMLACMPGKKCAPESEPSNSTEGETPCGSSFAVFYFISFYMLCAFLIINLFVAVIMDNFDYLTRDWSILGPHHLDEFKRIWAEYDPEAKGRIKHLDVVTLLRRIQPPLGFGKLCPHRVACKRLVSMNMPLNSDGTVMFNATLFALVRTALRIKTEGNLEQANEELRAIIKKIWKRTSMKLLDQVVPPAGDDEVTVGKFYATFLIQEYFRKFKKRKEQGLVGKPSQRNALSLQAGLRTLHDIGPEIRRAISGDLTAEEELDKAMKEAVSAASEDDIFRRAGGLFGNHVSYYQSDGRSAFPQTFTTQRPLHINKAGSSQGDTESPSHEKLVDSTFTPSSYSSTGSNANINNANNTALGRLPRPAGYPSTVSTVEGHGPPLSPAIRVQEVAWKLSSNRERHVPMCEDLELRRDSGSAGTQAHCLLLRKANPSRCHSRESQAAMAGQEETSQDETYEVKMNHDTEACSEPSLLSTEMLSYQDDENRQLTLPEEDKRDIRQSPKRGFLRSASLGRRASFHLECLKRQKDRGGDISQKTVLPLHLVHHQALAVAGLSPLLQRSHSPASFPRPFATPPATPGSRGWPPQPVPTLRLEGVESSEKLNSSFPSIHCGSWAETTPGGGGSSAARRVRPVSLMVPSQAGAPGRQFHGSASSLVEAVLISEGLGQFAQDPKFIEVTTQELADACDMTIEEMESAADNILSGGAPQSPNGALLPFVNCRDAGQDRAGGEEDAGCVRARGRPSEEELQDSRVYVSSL", "T1 sequence (Q08289 whole entry partner)": "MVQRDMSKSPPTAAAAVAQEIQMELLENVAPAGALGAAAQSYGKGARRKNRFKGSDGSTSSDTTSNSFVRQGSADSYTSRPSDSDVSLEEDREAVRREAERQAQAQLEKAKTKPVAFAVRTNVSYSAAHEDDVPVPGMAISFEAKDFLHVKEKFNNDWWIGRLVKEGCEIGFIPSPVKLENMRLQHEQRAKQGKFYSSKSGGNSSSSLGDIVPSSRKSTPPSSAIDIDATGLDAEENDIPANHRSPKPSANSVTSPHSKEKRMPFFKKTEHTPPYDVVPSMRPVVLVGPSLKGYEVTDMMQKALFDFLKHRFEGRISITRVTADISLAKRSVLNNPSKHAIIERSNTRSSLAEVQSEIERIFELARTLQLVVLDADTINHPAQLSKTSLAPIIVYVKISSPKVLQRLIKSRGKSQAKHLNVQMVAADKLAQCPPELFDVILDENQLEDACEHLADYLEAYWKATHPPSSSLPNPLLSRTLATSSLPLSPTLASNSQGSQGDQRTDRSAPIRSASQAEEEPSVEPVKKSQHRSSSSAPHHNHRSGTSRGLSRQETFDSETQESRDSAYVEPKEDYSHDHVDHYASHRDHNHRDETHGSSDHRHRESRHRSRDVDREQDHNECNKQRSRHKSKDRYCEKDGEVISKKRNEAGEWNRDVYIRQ", "T1 sequence (P54289 25-946 partner limits assumed)": "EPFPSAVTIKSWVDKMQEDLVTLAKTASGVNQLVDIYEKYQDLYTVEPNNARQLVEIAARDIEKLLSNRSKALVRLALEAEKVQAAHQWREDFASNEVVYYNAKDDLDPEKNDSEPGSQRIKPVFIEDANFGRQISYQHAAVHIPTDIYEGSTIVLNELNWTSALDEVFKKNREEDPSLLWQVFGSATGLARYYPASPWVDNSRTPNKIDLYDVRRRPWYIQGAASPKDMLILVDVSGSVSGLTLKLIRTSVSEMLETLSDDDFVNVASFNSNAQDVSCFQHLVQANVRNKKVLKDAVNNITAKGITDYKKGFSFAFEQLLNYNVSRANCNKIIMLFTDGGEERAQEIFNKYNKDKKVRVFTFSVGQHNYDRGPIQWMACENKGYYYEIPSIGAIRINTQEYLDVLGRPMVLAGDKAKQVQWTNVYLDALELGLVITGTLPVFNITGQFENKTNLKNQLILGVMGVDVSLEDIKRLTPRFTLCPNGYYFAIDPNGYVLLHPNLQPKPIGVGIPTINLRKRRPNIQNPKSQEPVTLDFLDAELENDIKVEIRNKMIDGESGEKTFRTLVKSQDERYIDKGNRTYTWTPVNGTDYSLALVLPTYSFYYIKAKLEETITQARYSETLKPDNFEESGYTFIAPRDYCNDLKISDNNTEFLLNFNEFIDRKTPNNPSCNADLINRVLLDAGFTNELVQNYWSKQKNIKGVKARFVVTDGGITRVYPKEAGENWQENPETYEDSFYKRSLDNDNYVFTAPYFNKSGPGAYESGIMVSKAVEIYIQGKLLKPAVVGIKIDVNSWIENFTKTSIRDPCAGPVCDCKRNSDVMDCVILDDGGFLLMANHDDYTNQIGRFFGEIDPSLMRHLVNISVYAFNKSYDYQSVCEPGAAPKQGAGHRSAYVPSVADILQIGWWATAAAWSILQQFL", "T1 sequence (P54289 947-1103 partner limits assumed)": "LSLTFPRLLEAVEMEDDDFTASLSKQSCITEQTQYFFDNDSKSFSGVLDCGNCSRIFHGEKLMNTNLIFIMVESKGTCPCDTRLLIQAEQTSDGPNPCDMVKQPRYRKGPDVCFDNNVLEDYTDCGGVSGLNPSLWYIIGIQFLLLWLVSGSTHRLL", "experiment": "In vitro assay L channel (FLIPR, KCl-induced calcium fluorescence)", "type": "cell-based", "details": "HEK293 cells expressing human Cav1.2 with β-2a and α2δ-1; 20 mM KCl; read-out: L channel antagonistic activity IC50", "description": "The L channel antagonistic activity (IC50 values) of Reference Examples 1A, 2A, and 3A is determined in accordance with the following experimental method.\nHuman embryonic kidney (HEK293) cells expressing the human Cav1.2 channel in addition to the auxiliary subunits β-2a and α2δ-1, are grown in culture medium (DMEM containing 10% heat-inactivated fetal calf serum (FCS), 100 U/ml penicillin, 100 μg/ml streptomycin, 100 μg/ml G418, 40 μg/ml zeocin and 100 μg/ml hygromycin). The cells are seeded at 20.000 cells/well into 384-well black clear bottom sterile plates (poly-L-lysine-coated, Becton Dickinson). The seeded plates are incubated overnight at 37° C. in 5% CO2. The KCl solution is prepared as 80 mM stock solution in assay buffer (HBSS containing 0.1% BSA, 20 mM HEPES, 0.375 g/l NaHCO3, adjusted to pH 7.4 with NaOH) for use in the assay at a final concentration of 20 mM. Antagonists are prepared as 10 mM stock solutions in DMSO, then diluted in 384 w plates first in DMSO, then in assay buffer to obtain 3× stocks. On the day of the assay, 25 μl of staining buffer (HBSS containing 20 mM HEPES, 0.375 g/l NaHCO3, and 3 μM of the fluorescent calcium indicator fluo-4 AM (1 mM stock solution in DMSO, containing 10% pluronic) is added to each well of the seeded plate. The 384-well cell-plates are incubated for 60 min at 37° C. in 5% CO2 followed by washing with 2×50 μl per well using assay buffer leaving 50 μl/well of this buffer for equilibration at room temperature (30-60 min). Within the Fluorescent Imaging Plate Reader (FLIPR, Molecular Devices), antagonists are added to the plate in a volume of 25 μl/well, incubated for 3 min and finally 25 μl/well of KCl solution is added for cellular depolarization. Fluorescence is measured for each well at 2 second intervals for 8 minutes, and the area under the curve of each fluorescence peak is compared to the area of the fluorescence peak induced by 20 mM KCl with vehicle in place of antagonist. […]"}}, "data": [{"compound": "COc1ccc(OC)c2[nH]c(CCCN(C)CCC3(OC(=O)C(C)C)CC4CCC3C=C4c3ccccc3)nc12.O=C(O)/C=C\\C(=O)O.O=C(O)/C=C\\C(=O)O", "note": "(stereo not drawn) [di-maleic acid salt of COMPOUND]", "values": [{"measurement": "Hygroscopicity classification", "setting": "[1]", "result": "Non hygroscopic"}, {"measurement": "Hygroscopicity mass change", "setting": "[1]", "result": 0.1, "unit": "%"}]}, {"compound": "COc1ccc(OC)c2[nH]c(CCCN(C)CCC3(OC(=O)C(C)C)CC4CCC3C=C4c3ccccc3)nc12.Cl.Cl", "note": "(stereo not drawn) [di-hydrochloric acid salt of COMPOUND]", "values": [{"measurement": "Hygroscopicity classification", "setting": "[1]", "result": "Slightly hygroscopic (mass"}, {"measurement": "Hygroscopicity mass change", "setting": "[1]", "result": "change 0.5%)"}]}, {"compound": "COc1ccc(OC)c2[nH]c(CCCN(C)CC[C@]3(OC(=O)C(C)C)C[C@H]4CC[C@@H]3C=C4c3ccccc3)nc12", "note": "(racemic) [Reference Example 1A, rac-Isobutyric acid (1R*,2R*,4R*)-2-(2-{[3-(4,7-dimethoxy-1H-benzoimidazol-2-yl)-propyl]-methyl-amino}-ethyl)-5-phenyl-bicyclo[2.2.2]oct-5-en-2-yl ester]", "values": [{"measurement": "EC50", "setting": "isolated mouse hearts", "result": 5, "unit": "nM"}, {"measurement": "IC50", "setting": "human Cav1.2 channel", "result": "156 to 439", "unit": "nM"}]}, {"compound": "COc1ccc(OC)c2[nH]c(CCCN(C)CC[C@]3(OC(=O)C(C)C)C[C@H]4CC[C@@H]3C=C4c3ccccc3)nc12", "note": "[Reference Example 3A, Isobutyric acid (1R,2R,4R)-2-(2-{[3-(4,7-dimethoxy-1H-benzoimidazol-2-yl)-propyl]-methyl-amino}-ethyl)-5-phenyl-bicyclo[2.2.2]oct-5-en-2-yl ester]", "values": [{"measurement": "IC50", "setting": "human Cav1.2 channel", "result": "156 to 439", "unit": "nM"}]}, {"compound": "Br.Br.COc1ccc(OC)c2[nH]c(CCCN(C)CCC3(OC(=O)C(C)C)CC4CCC3C=C4c3ccccc3)nc12", "note": "(stereo not drawn) [di-hydrobromic acid salt of COMPOUND]", "values": [{"measurement": "Hygroscopicity classification", "setting": "[1]", "result": "Non hygroscopic"}, {"measurement": "Hygroscopicity mass change", "setting": "[1]", "result": 0.1, "unit": "%"}]}, {"compound": "COc1ccc(OC)c2[nH]c(CCCN(C)CC[C@@]3(OC(=O)C(C)C)C[C@@H]4CC[C@H]3C=C4c3ccccc3)nc12", "note": "[Reference Example 2A, Isobutyric acid (1S,2S,4S)-2-(2-{[3-(4,7-dimethoxy-1H-benzoimidazol-2-yl)-propyl]-methyl-amino}-ethyl)-5-phenyl-bicyclo[2.2.2]oct-5-en-2-yl ester]", "values": [{"measurement": "IC50", "setting": "human Cav1.2 channel", "result": "156 to 439", "unit": "nM"}]}, {"compound": "COc1ccc(OC)c2[nH]c(CCCN(C)CCC3(OC(=O)C(C)C)CC4CCC3C=C4c3ccccc3)nc12.COc1ccc(OC)c2[nH]c(CCCN(C)CCC3(OC(=O)C(C)C)CC4CCC3C=C4c3ccccc3)nc12.O=C(O)/C=C/C(=O)O.O=C(O)/C=C/C(=O)O.O=C(O)/C=C/C(=O)O", "note": "(stereo not drawn) [sesqui-fumaric acid salt of COMPOUND]", "values": [{"measurement": "Hygroscopicity classification", "setting": "[1]", "result": "Non hygroscopic"}, {"measurement": "Hygroscopicity mass change", "setting": "[1]", "result": 0.1, "unit": "%"}]}]}
